Experimental data from patent US9023789B2, “Amylin analogs and pharmaceutical compositions thereof” (Novo Nordisk A/S, priority 2012, dated 2015).
Values after ≈ are worked out from the molar mass of the structure shown. Where two headings read alike, the source gives them in different places. Numbered stars: 1 amine (or outer) side, 2 acyl side, 3 side chain; on linkers, the order of the positions; unused ones are H or OH. Bridge positions count the residues as written; N and C are the ends. Side chains are listed from the residue outwards. Peptide text beside a SMILES is read from it. * marks the point of attachment. C20 diacid = O=C(O)CCCCCCCCCCCCCCCCCCC(=O)*; γGlu = O=C(O)[C@H](CCC(=O)[*:2])N[*:1]

How the values were obtained:
[1] = biological target: T1, rat amylin receptor (rat calcitonin receptor + rat RAMP 3) (Rattus norvegicus, UniProt P32214+Q9JJ73); test: ASSAY (VI) binding to the rat amylin receptor; conditions: for IC50: binding to rat amylin receptor, read-out: rAmylin-R bind IC50
T1 construct: expressed in transfected cells; host or cells: BHK tk'ts 13 (transient, FuGENE 6), membranes
T1 sequence (P32214 25-479 isoform P32214-2 limits assumed): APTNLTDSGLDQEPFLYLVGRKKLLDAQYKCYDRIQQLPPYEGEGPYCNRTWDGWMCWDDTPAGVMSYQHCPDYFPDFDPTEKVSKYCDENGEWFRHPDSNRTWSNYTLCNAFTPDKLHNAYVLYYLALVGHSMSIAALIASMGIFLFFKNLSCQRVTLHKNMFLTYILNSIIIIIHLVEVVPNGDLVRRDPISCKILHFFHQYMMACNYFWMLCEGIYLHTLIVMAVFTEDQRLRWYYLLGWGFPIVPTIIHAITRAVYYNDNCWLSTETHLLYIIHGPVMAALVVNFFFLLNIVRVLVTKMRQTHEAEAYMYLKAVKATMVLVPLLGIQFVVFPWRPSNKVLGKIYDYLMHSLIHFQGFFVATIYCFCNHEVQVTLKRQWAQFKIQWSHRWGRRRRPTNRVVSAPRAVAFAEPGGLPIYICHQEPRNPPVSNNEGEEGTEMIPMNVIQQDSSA
T1 sequence (Q9JJ73 23-147 partner): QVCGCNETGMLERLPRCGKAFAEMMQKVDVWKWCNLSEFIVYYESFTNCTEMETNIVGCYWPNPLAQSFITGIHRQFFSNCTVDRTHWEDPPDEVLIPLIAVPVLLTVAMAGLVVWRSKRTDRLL
Protocol: Assay (VI)—Determination of the Binding to the Rat Amylin Receptor […] The BHK tk′ts 13 cells were transiently transfected with rat calcitonin receptor using FuGENE® 6 (Roche), according to the manufacturer's recommendations. […] Approximately 48 hours after transfection, the cells were harvested and membranes were prepared.

[2] = ASSAY (IV) determination of solubility; format: physicochemical
Protocol: Assay (IV)—Determination of Solubility
The polypeptide was dissolved in water at −500 nmol/ml and mixed 1:1 with a series of buffers (100 mM glycylglycine pH 3.0, 100 mM glycylglycine pH 4.0, 100 mM glycylglycine pH 5.0, 100 mM bistrispropane pH 6.0, 100 mM bistrispropane pH 6.5, 100 mM bistrispropane pH 7.0, 100 mM bistrispropane pH 7.5, 100 mM bistrispropane pH 8.0). After 18 hours at room temperature the samples were centrifuged and the polypeptide concentration determined by UPLC.

[3] = biological target: T2, human calcitonin (a) receptor in BHK570 cells (Homo sapiens, UniProt P30988); test: ASSAY (II)a functional assay, human calcitonin receptor (CRE luciferase); format: cell-based; conditions: read-out: hCTR funct. EC50
T2 construct: expressed in transfected cells
T2 sequence (P30988 25-474): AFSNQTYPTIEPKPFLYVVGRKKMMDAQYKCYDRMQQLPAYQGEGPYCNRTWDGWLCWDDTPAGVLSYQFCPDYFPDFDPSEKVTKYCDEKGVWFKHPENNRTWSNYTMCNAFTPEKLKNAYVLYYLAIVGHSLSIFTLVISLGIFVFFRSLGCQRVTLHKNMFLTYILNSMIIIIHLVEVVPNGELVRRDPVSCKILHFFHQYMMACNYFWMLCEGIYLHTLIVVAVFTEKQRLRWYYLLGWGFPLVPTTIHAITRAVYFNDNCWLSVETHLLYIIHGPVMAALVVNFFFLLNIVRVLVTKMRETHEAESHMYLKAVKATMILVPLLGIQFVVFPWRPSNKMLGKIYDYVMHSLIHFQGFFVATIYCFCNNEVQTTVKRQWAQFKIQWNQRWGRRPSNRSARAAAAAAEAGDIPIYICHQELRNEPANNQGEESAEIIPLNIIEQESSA
Excerpt: 1. Luciferase Assay Outline
Activation of calcitonin and amylin (coexpression of calcitonin receptor and receptor activity modifying proteins (RAMP)) receptors lead to increased intracellular concentrations of cAMP. Consequently, transcription is activated by promoters containing multiple copies of the cAMP response element (CRE). It is thus possible to measure amylin activity by the use of a CRE luciferase reporter gene introduced into BHK cells also expressing calcitonin or amylin receptors.
2. Construction of Calcitonin (a)- and Amylin 3(a)-Receptor/CRE-Luc Cell Line.
The cell line was further transfected with RAMP-3, using standard methods. This turns the calcitonin receptor into an amylin 3(a) receptor. Methotrexate, Neomycin, and Hygromycin are selection markers for luciferase, the calcitonin receptor, and RAMP-3, respectively.
To perform activity assays, BHK calcitonin (a) receptor- or amylin 3(a)-receptor/CRE-luc cells were seeded in white 96 well culture plates at a density of about 20.000 cells/well. […] After incubation overnight at 37° C. and 5% CO2, the growth medium was replaced by 50 μl/well assay medium (DMEM (without phenol red), Glutamax™, 10% FBS, and 10 mM Hepes, pH 7.4). Further, 50 μl/well of standard or sample in assay buffer were added. After 3 hours incubation at 37° C. and 5% CO2, the assay medium with standard or sample were removed and replaced by 100 μl/well PBS. Further, 100 μl/well LucLite™ was added. The plates were sealed and incubated at room temperature for 30 minutes. Finally, luminescence was measured on a TopCounter (Packard) in SPC (single photon counting) mode.

[4] = biological target: T3, human amylin 3(a) receptor (human calcitonin receptor + RAMP-3) in BHK570 cells (Homo sapiens, UniProt O60896+P30988); test: ASSAY (II)a functional assay, human amylin receptor (CRE luciferase); format: cell-based; conditions: for EC50: human amylin receptor functional potency, assay (II), read-out: hAmylin-R funct. EC50
T3 construct: expressed in transfected cells
How it was run: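 BHK CRE-luc cells, calcitonin (a) receptor ± RAMP-3 (amylin 3(a)); overnight seeding, 37° C/5% CO2. 3 h ligand exposure, DMEM/10% FBS/10 mM Hepes pH 7.4. LucLite 30 min RT; luminescence (SPC).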

rat calcitonin receptor = biological target: T4, rat calcitonin receptor (Rattus norvegicus, UniProt P32214); test: ASSAY (VIII) binding to the rat calcitonin receptor; conditions: Table 7, read-out: rCTR bind IC50
T4 construct: expressed in transfected cells; host or cells: BHK tk'ts 13 (transient, FuGENE 6), membranes
T4 sequence (P32214 25-479 isoform P32214-2 limits assumed): T1 sequence (P32214 25-479 isoform P32214-2 limits assumed)
Protocol: Assay (VIII)—Determination of Binding to the Rat Calcitonin Receptor
The BHK tk′ts 13 cells were transiently transfected with rat calcitonin receptor using FuGENE® 6 (Roche), according to the manufacturer's recommendations. Cells were grown in DMEM with 10% FBS and 1% Pen/Strep. Approximately 48 hours after transfection, the cells were harvested and membranes were prepared.

[5] = biological target: T5, human amylin receptor (membranes from Amylin 3(a)/CRE-luc cells) (Homo sapiens, UniProt O60896+P30988); test: ASSAY (V) binding to the human amylin receptor (SPA, 125I-rat amylin);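 also: competition binding of cell membranes (35 ng/µL) mixed with SPA beads in 384-well plates at 40 µL total volume, read by scintillation counting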
T5 construct: expressed in transfected cells
T5 sequence (P30988 25-474): T2 sequence (P30988 25-474)
T5 sequence (O60896 24-148 partner): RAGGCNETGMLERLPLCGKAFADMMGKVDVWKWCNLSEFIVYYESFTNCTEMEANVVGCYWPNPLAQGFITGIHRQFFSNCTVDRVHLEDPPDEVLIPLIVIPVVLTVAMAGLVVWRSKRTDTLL

[6] = biological target: T6, human calcitonin receptor (Homo sapiens, UniProt P30988); test: ASSAY (VII) binding to the human calcitonin receptor (SPA, 125I-Calcitonin); conditions: read-out: hCTR bind IC50;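 also: cell membranes (35 ng/µL) combined with SPA beads in 40 µL of pH 7.4 Hepes buffer, 384-well format, signal counted on a TopCounter instrument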
T6 construct: expressed in transfected cells
T6 sequence (P30988 25-474): T2 sequence (P30988 25-474)

[7] = Table 7, rat binding selectivity, rCTR IC50 / rAmylin-R IC50
[8] = human functional selectivity: hCTR funct. EC50 / hAmylin-R funct. EC50
[9] = Table 5, selectivity, hCTR bind IC50 / hAmylin-R bind IC50
[10] = Table 7, human binding selectivity, included for comparison

CC(C)C[C@H](NC(=O)[C@H](CCCNC(=N)N)NC(=O)[C@H](CCC(N)=O)NC(=O)[C@@H](NC(=O)[C@H](C)NC(=O)[C@@H]1CSSC[C@H](NC(=O)[C@@H](N)CCCCNC(=O)CC[C@H](NC(=O)CC[C@H](NC(=O)CCCCCCCCCCCCCCCCCCC(=O)O)C(=O)O)C(=O)O)C(=O)N[C@@H](CC(N)=O)C(=O)N[C@@H]([C@@H](C)O)C(=O)N[C@@H](C)C(=O)N[C@@H]([C@@H](C)O)C(=O)N1)[C@@H](C)O)C(=O)N[C@@H](C)C(=O)N[C@@H](CC(=O)O)C(=O)N[C@@H](Cc1ccccc1)C(=O)N[C@@H](CC(C)C)C(=O)N[C@@H](CCCNC(=N)N)C(=O)N[C@@H](Cc1c[nH]cn1)C(=O)N[C@@H](CO)C(=O)N[C@@H](CO)C(=O)N[C@@H](CC(N)=O)C(=O)N1CCC[C@H]1C(=O)N[C@@H](Cc1ccccc1)C(=O)NCC(=O)N[C@@H](C)C(=O)N1CCC[C@H]1C(=O)N[C@@H](CC(C)C)C(=O)N[C@@H](CO)C(=O)N[C@@H](CO)C(=O)N[C@H](C(=O)N[C@@H](CC(N)=O)C(=O)N[C@H](C(=O)NCC(=O)N[C@@H](CO)C(=O)N[C@@H](CC(=O)O)C(=O)N[C@H](C(=O)N[C@@H](Cc1ccc(O)cc1)C(N)=O)[C@@H](C)O)C(C)C)[C@@H](C)O [Example 3] (H-K([γGlu-γGlu-C20 diacid])CNTATCATQRLADFLRHSSNPFGAPLSSTNVGSDTY-NH2; disulfide 2-7; N-terminus assumed)
IC50 ([1]; Table 7): 1 nM | Ratio rCT/rAmylin binding [1, 7]: 16.7 | Ratio rCT/rAmylin binding ([1]; Table 7a (preferred compounds), rat binding selectivity, rCTR IC50 / rAmylin-R IC50): 16.7 | Ratio rCT/rAmylin binding ([1]; ratio of rCTR bind IC50 to rAmylin-R bind IC50): 16.7 | solubility at 18 h ([2]; bistrispropane buffer, pH 6.5, read-out: Solubility pH 6.5 Concentration): ≥ 200 µM | solubility at 18 h ([2]; bistrispropane buffer, pH 7.5, read-out: Solubility pH 7.5 Concentration): ≥ 200 µM | solubility at 18 h ([2]; bistrispropane buffer, pH 6.0, read-out: Solubility pH 6.0 Concentration): 189 µM (≈ 853 µg/mL) | solubility at 18 h ([2]; bistrispropane buffer, pH 7.0, read-out: Solubility pH 7.0 Concentration): 195 µM (≈ 880 µg/mL) | solubility at 18 h ([2]; bistrispropane buffer, pH 8.0, read-out: Solubility pH 8.0 Concentration): ≥ 200 µM | solubility at 18 h ([2]; glycylglycine buffer, pH 3.0, read-out: Solubility pH 3.0 Concentration): ≥ 200 µM | solubility at 18 h ([2]; glycylglycine buffer, pH 4.0, read-out: Solubility pH 4.0 Concentration): 96 µM (≈ 433 µg/mL) | solubility at 18 h ([2]; glycylglycine buffer, pH 5.0, read-out: Solubility pH 5.0 Concentration): 141 µM (≈ 636 µg/mL) | EC50 [3]: 1.38 nM | EC50 [4]: 0.205 nM | Ratio hCT/hAmylin funct. [4, 8]: 6.7 | IC50 (rat calcitonin receptor): 16.7 nM | Ratio hCT/hAmylin binding [5, 9]: 17.3 | Ratio hCT/hAmylin binding ([5]; Table 5a, selectivity, hCTR bind IC50 / hAmylin-R bind IC50): 17.3 | Ratio hCT/hAmylin binding ([5]; Table 5b, selectivity, hCTR bind IC50 / hAmylin-R bind IC50): 17.3 | Ratio hCT/hAmylin binding [5, 10]: 17.3 | Ratio hCT/hAmylin binding ([5]; Table 7a (preferred compounds), human binding selectivity, included for comparison): 17.3 | Ratio hCT/hAmylin binding ([5]; ratio of human calcitonin receptor binding IC50 to human amylin receptor binding IC50): 17.3

CC[C@H](C)[C@H](NC(=O)[C@@H]1CCCN1C(=O)CNC(=O)[C@H](Cc1ccccc1)NC(=O)[C@H](CC(N)=O)NC(=O)[C@@H]1CCCN1C(=O)[C@H](CO)NC(=O)[C@H](CO)NC(=O)[C@H](Cc1c[nH]cn1)NC(=O)[C@H](CCCNC(=N)N)NC(=O)[C@H](CC(C)C)NC(=O)[C@H](Cc1ccccc1)NC(=O)[C@H](CCC(=O)O)NC(=O)[C@H](C)NC(=O)[C@H](CC(C)C)NC(=O)[C@H](CCCNC(=N)N)NC(=O)[C@H](CCC(N)=O)NC(=O)[C@@H](NC(=O)[C@H](C)NC(=O)[C@@H]1CSSC[C@H](NC(=O)[C@H](CCCCN)NC(=O)CC[C@H](NC(=O)CCCCCCCCCCCCCCCCCCC(=O)O)C(=O)O)C(=O)N[C@@H](CC(N)=O)C(=O)N[C@@H]([C@@H](C)O)C(=O)N[C@@H](C)C(=O)N[C@@H]([C@@H](C)O)C(=O)N1)[C@@H](C)O)C(=O)N[C@@H](CC(C)C)C(=O)N1CCC[C@H]1C(=O)N1CCC[C@H]1C(=O)N[C@H](C(=O)N[C@@H](CC(N)=O)C(=O)N[C@H](C(=O)NCC(=O)N[C@@H](CO)C(=O)N[C@@H](CC(N)=O)C(=O)N[C@H](C(=O)N1CCC[C@H]1C(N)=O)[C@@H](C)O)C(C)C)[C@@H](C)O [Example 4] ({C20 diacid-γGlu}-KCNTATCATQRLAEFLRHSSPNFGPILPPTNVGSNTP-NH2; disulfide 2-7)
IC50 ([1]; Table 7): 1.3 nM | Ratio rCT/rAmylin binding [1, 7]: 3.1 | EC50 [3]: 0.07 nM | Ratio hCT/hAmylin funct. ([4]; hCTR funct. EC50 / hAmylin-R funct. EC50): 1.2 | Ratio hCT/hAmylin funct. ([4]; hCTR funct. EC50 over hAmylin-R funct. EC50): 1.2 | EC50 [4]: 0.06 nM | Ratio hCT/hAmylin funct. [4, 8]: 1.2 | IC50 ([5]; Table 4, read-out: hAmylin-R bind IC50): 0.321 nM | Ratio hCT/hAmylin binding [5, 9]: 2.1 | Ratio hCT/hAmylin binding [5, 10]: 2.1 | IC50 [6]: 0.688 nM
